What was measured:
Assay in all cases: relative viability (nuclei count vs DMSO), 5 days (fraction); higher = more cells survive
Kobe2602 + Crizotinib = compound: C1=CC(=CC=C1NC(=S)NNC2=C(C=C(C=C2[N+](=O)[O-])C(F)(F)F)[N+](=O)[O-])F [Kobe2602] + C[C@@H](Oc1cc(-c2cnn(C3CCNCC3)c2)cnc1N)c1c(Cl)ccc(F)c1Cl [Crizotinib] (partner 1 µM)
Summary of the method: (§1)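 Cells from lung cancer lines were seeded into 1536-well plates and, one day later, dosed by pin tool. Treatments were either a single drug or a fixed dose of an anchor drug with five library-drug doses (not always all listed) in √10 steps. After 5 days, nuclei were stained in a one-step fixation (final 0.05% Triton X-100, 1% formaldehyde, 1 ug/ml Hoechst) and counted on 4× images, and relative viability is the treated-to-vehicle nuclei ratio, as the median of duplicate plates.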

Zosuquidar + Tozasertib = compound: O[C@@H](COc1cccc2ncccc12)CN1CCN([C@@H]2c3ccccc3[C@@H]3[C@H](c4ccccc42)C3(F)F)CC1 [Zosuquidar] + Cc1cc(Nc2cc(N3CCN(C)CC3)nc(Sc3ccc(NC(=O)C4CC4)cc3)n2)n[nH]1 [Tozasertib] (partner 0.1 µM)
Summary of the method: as §1

Zosuquidar + Linsitinib = compound: O[C@@H](COc1cccc2ncccc12)CN1CCN([C@@H]2c3ccccc3[C@@H]3[C@H](c4ccccc42)C3(F)F)CC1 [Zosuquidar] + C[C@]1(O)C[C@@H](c2nc(-c3ccc4ccc(-c5ccccc5)nc4c3)c3c(N)nccn32)C1 [Linsitinib] (partner 1 µM)
Summary of the method: as §1

Cabozantinib + Lapatinib = compound: COc1cc2nccc(Oc3ccc(NC(=O)C4(C(=O)Nc5ccc(F)cc5)CC4)cc3)c2cc1OC [Cabozantinib] + CS(=O)(=O)CCNCc1ccc(-c2ccc3ncnc(Nc4ccc(OCc5cccc(F)c5)c(Cl)c4)c3c2)o1 [Lapatinib] (partner 2 µM)
Summary of the method: as §1

Cell Line | relative viability (Kobe2602 + Crizotinib; first compound 0.2 µM) | relative viability (Kobe2602 + Crizotinib; first compound 0.6325 µM) | relative viability (Kobe2602 + Crizotinib; first compound 2 µM) | relative viability (Kobe2602 + Crizotinib; first compound 6.325 µM) | relative viability (Kobe2602 + Crizotinib; first compound 20 µM) | relative viability (Zosuquidar + Tozasertib; first compound 0.01 µM) | relative viability (Zosuquidar + Tozasertib; first compound 0.03162 µM) | relative viability (Zosuquidar + Tozasertib; first compound 0.1 µM) | relative viability (Zosuquidar + Tozasertib; first compound 0.3162 µM) | relative viability (Zosuquidar + Tozasertib; first compound 1 µM) | relative viability (Zosuquidar + Linsitinib; first compound 0.01 µM) | relative viability (Zosuquidar + Linsitinib; first compound 0.03162 µM) | relative viability (Zosuquidar + Linsitinib; first compound 0.1 µM) | relative viability (Zosuquidar + Linsitinib; first compound 0.3162 µM) | relative viability (Zosuquidar + Linsitinib; first compound 1 µM) | relative viability (Cabozantinib + Lapatinib; first compound 0.02 µM) | relative viability (Cabozantinib + Lapatinib; first compound 0.06325 µM) | relative viability (Cabozantinib + Lapatinib; first compound 0.2 µM) | relative viability (Cabozantinib + Lapatinib; first compound 0.6325 µM) | relative viability (Cabozantinib + Lapatinib; first compound 2 µM)
ABC-1 | 1 | 1.04 | 1.06 | 1.21 | 1.08 | 0.143 | 0.172 | 0.194 | 0.234 | 0.178 | 0.877 | 0.794 | 0.836 | 0.871 | 0.924 | 1.42 | 1.1 | 1.11 | 1.1 | 1.13
BEN | 0.948 | 0.727 | 0.894 | 0.843 | 0.819 | 0.482 | 0.489 | 0.503 | 0.563 | 0.431 | 1.05 | 0.896 | 0.766 | 0.859 | 0.936 | 0.702 | 0.814 | 0.846 | 0.67 | 0.63
CAL-12T | 0.604 | 0.569 | 0.618 | 0.641 | 0.549 | 0.263 | 0.289 | 0.329 | 0.333 | 0.286 | 0.776 | 0.979 | 0.549 | 0.894 | 0.841 | 0.708 | 0.653 | 0.701 |  | 0.529
COR-L23 | 0.656 | 0.573 | 0.647 | 0.745 | 0.7 | 0.196 | 0.224 | 0.188 | 0.215 | 0.187 | 0.98 | 0.959 | 0.945 | 1.03 | 0.902 | 1.04 | 1.14 | 0.947 | 1.12 | 0.878
COR-L 105 | 0.85 | 0.838 | 0.653 | 0.966 | 0.831 | 0.293 | 0.315 | 0.402 | 0.309 | 0.333 | 0.889 | 0.975 | 0.869 | 1.15 | 1.05 | 0.321 | 0.341 |  | 0.352 | 0.372
EKVX | 1.11 | 0.705 | 0.865 | 0.887 | 0.956 | 0.394 | 0.436 | 0.389 | 0.369 | 0.348 | 1.05 | 1.06 | 0.731 | 0.922 | 1.05 | 0.172 | 0.207 | 0.203 | 0.21 | 0.191
EMC-BAC-2 | 0.759 | 0.799 | 0.754 | 0.755 | 0.747 | 0.278 | 0.33 | 0.285 | 0.274 | 0.261 | 0.803 | 0.843 | 0.782 | 0.858 | 0.797 | 0.841 | 0.927 | 0.88 | 0.879 | 0.973
EPLC-272H | 0.772 | 0.905 | 0.967 | 0.899 | 0.914 | 0.192 | 0.245 | 0.358 | 0.261 | 0.253 | 1.24 | 1.22 | 1.1 | 1.12 | 1.09 | 0.899 | 1.22 | 0.877 | 0.97 | 0.701
H3255 | 0.906 | 1.12 | 0.802 | 0.839 | 0.874 | 0.734 | 0.737 | 0.718 | 0.711 | 0.604 | 1.07 | 0.945 | 0.783 | 1.1 | 0.951 | 0.182 | 0.234 |  | 0.366 | 0.217
HARA | 1.05 | 1.01 | 1.05 | 1.24 | 0.981 | 0.111 |  | 0.112 | 0.0991 | 0.102 | 0.84 | 0.993 | 0.959 | 1.04 | 1.11 | 0.582 | 0.806 | 0.856 | 0.809 | 0.639
HCC-15 | 0.747 | 0.803 | 0.727 | 0.769 | 0.752 | 0.257 | 0.323 | 0.416 | 0.223 | 0.321 | 0.949 | 0.794 | 0.913 | 0.901 | 0.901 | 0.85 | 0.879 | 0.783 | 0.843 | 0.965
HCC-44 | 0.771 | 0.697 | 0.767 | 0.783 | 0.749 | 0.965 | 1.13 | 1.17 | 1.01 | 0.889 | 0.663 | 0.684 | 0.65 | 0.669 | 0.696 | 1.09 | 1.12 | 1 | 1.11 | 1.04
HCC-78 | 0.382 | 0.302 |  | 0.333 | 0.363 | 0.413 | 0.329 |  | 0.44 | 0.398 | 0.67 | 0.556 |  | 0.486 | 0.542 | 0.458 | 0.922 | 0.348 | 0.305 | 0.286
HCC-366 | 0.434 | 0.597 | 0.494 | 0.569 | 0.655 | 0.153 | 0.395 | 0.195 | 0.121 | 0.102 | 0.641 | 0.682 | 0.641 | 0.597 | 0.783 | 1.08 | 1.07 | 1.05 | 1.13 | 0.957
HCC-827 | 0.925 | 0.921 | 0.903 | 0.91 | 0.859 | 0.413 | 0.369 | 0.401 | 0.386 | 0.386 | 1 | 0.902 | 0.943 | 0.879 | 0.96 | 0.19 | 0.233 |  | 0.183 | 0.179
HOP-62 | 0.803 | 0.9 | 0.961 | 0.873 | 0.962 | 0.363 | 0.312 | 0.396 | 0.341 | 0.308 | 0.834 | 1.12 | 1.13 | 0.886 | 0.991 | 1.05 | 1.3 | 1.19 | 1.2 | 1.14

Source: the supplement of paper PMC10307832
